The record followed here is patent US12479827B2, “Heteroaromatic carboxamide derivatives as plasma kallikrein inhibitors” (Boehringer Ingelheim International GmbH, priority 2020, dated 2025).

What all share (type): biochemical
For one test, the target named is T1, Human PKK (Homo sapiens, UniProt P03952).
T1 construct: purchased Enzyme Research Laboratories
Put plainly: Inhibition of PKK using an endpoint assay (human PKK). To be noted: fluorogenic substrate H-Pro-Phe-Arg-AMC, 1 h room temperature, method names human or rat PKK, table does not say which. The method in brief:
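Human PKK inhibition measured in 100 mM Tris, 150 mM NaCl, pH 7.8, 0.1% BSA, 0.05% Tween20, 1% DMSO. Endpoint format: reaction stopped with PPACK II at 1 μM final, fluorescence read at 355 nm excitation/460 nm emission.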

For test [1], the target named is T2, PKK in kaolin activated human platelet poor plasma (Homo sapiens, UniProt P03952).
T2 construct: Platelet poor plasma (PPP) obtained from human wholeblood; from tissue
Briefly: Inhibition of PKK in kaolin activated human PPP.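 Also: readout is the rate of fluorogenic substrate cleavage in rfu per min.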 To be noted: 25-750 μg/mL kaolin, global fit, text b200 calls the values IC90. As for the experimental part: Platelet poor plasma (PPP) obtained from human wholeblood, anticoagulated with Na-Citrate, is incubated with various concentrations of the test compound together with either 25, 75, 250, or 750 μg/mL kaolin in assay buffer for 20 min at 37° C. such that for each kaolin dose used a concentration response is obtained for the test compound.

The target in another test is T3, human TK1 (Homo sapiens, UniProt P06870).
T3 construct: purchased R&D Systems
Briefly: Inhibition of TK1 (Ki). The note with it: activated human TK1, substrate H-Pro-Phe-Arg-AMC, 24° C. As for the experimental part: The ability of compounds of formula (I) to inhibit plasma kallikrein (PKK), Factor XIIa (FXIIa), Factor XIa (FXIa), Factor Xa (FXa), Factor IIa (alpha-thrombin; FIIa), plasmin, trypsin, tissue kallikrein 1 (TK1), Factor VIIa (FVIIa), or FVIIa complexed with Tissue Factor, phospholipids and CaCl2 (FVIIa/TF/PL/CaCl2) is determined using the following biochemical assays in assay buffer (100 mM Tris, 150 mM NaCL, adjusted to a pH of 7.8 with HCl, and containing 0.1% (w/v) BSA and 0.05% (v/v) Tween20) in the presence of 1% (v/v) DMSO:
Prior to the assay, human TK1 (R&D Systems) is activated by incubation with human trypsin (Calbiochem) in a 1:10,000 ratio for 15 min at 37° C. For assaying TK1 inhibitory activity, activated TK1 (31.25 nM or 1 U/mL) is incubated at 24° C. with 0.1 mM fluorogenic substrate H-Pro-Phe-Arg-AMC (11295 from Bachem) and various concentrations of the test compound in assay buffer. Measurements are performed in a kinetic interval every 2nd minute for 16 min using a Spectramax M5 (Molecular Devices) with the following settings of the wavelength excitation of 350 nm and wavelength emission of 450 nm.
The pIC50 values are then fitted using a four-parametric fitting procedure using GraphPad Prism (version 6; GraphPad Software, Inc.). Respective Ki values are obtained by correction of the IC50 values for the respective KM value of the used substrate (see Table A for the obtained KM values of the used substrates) using the following formula:
[formula] Where the IC50 is in molar and the KM value in mM.

T3 sequence (P06870 25-262): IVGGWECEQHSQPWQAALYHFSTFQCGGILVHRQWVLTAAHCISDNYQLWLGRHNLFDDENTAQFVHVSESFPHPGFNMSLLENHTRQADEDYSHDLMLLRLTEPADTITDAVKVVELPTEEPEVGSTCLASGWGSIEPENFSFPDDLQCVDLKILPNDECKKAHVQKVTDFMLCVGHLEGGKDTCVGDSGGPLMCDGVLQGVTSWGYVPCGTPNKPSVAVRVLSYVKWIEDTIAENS
T1 sequence (P03952 20-390 limits assumed): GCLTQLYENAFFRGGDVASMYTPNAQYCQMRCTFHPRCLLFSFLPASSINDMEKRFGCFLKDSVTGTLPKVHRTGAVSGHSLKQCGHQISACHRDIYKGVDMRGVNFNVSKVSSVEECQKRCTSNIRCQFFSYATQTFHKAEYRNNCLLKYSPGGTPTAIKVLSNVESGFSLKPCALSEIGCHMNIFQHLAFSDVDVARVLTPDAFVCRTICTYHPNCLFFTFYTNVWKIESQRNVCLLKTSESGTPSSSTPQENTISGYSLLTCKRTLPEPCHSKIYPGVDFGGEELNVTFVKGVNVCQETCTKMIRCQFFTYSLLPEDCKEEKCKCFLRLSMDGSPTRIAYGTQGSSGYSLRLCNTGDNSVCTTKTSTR
T1 sequence (P03952 391-638 limits assumed): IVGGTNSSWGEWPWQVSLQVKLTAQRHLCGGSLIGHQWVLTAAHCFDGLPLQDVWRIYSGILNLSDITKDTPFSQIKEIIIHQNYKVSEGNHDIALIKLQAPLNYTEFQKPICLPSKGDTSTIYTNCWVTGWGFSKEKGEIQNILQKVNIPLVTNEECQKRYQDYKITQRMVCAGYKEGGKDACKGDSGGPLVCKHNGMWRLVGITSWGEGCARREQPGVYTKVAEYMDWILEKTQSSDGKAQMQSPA
T2 sequence (P03952 391-638 limits assumed): as above
T2 sequence (P03952 20-390 limits assumed): as the sequence (P03952 20-390 limits assumed) above

For the molecule `Cn1cnc2c1CC[C@H]2NC(=O)c1cnn(Cc2ccc(N3CC4CC4C3)nc2C(F)(F)F)c1` (stereo partly drawn) [Example 134, 1-[(6-{3-Azabicyclo[3.1.0]hexan-3-yl}-2-(trifluoromethyl)pyridin-3-yl)methyl]-N-[(4R)-1-methyl-1H,4H,5H,6H-cyclopenta[d]imidazol-4-yl]-1H-pyrazole-4-carboxamide], the values for the IC50 (at Human PKK; in test [1]) were 1.7 nM and 1030 nM, respectively. The molecule further registered a Ki at human TK1 greater than 10000 nM.
On to `Cn1cnc2c1CC[C@H]2NC(=O)c1cnn(Cc2cnc(N3CC4CC4C3)c(C#N)c2)c1` (stereo partly drawn) [Example 114, 1-[(6-{3-Azabicyclo[3.1.0]hexan-3-yl}-5-cyanopyridin-3-yl)methyl]-N-[(4R)-1-methyl-1H,4H,5H,6H-cyclopenta[d]imidazol-4-yl]-1H-pyrazole-4-carboxamide], for which the IC50 came to 1.8 nM against Human PKK and 14700 nM in test [1]. In addition, the Ki on human TK1 is greater than 10000 nM.
Taken in the same sequence, the figures for `Cc1nc(N2CC3CC3C2)ccc1Cn1cnc(C(=O)N[C@@H]2CCc3c2ncn3C)c1` (stereo partly drawn) [Example 23, 1-[(6-{3-Azabicyclo[3.1.0]hexan-3-yl}-2-methylpyridin-3-yl)methyl]-N-[(4R)-1-methyl-1H,4H,5H,6H-cyclopenta[d]imidazol-4-yl]-1H-imidazole-4-carboxamide] were 1.1 nM, 233 nM and greater than 10000 nM.
Turning to `Cc1nc(N2CC3CC3C2)ncc1Cn1cc(C(=O)N[C@@H]2CCc3c2ncn3C)nn1` (stereo partly drawn) [Example 137, 1-[(2-{3-Azabicyclo[3.1.0]hexan-3-yl}-4-methylpyrimidin-5-yl)methyl]-N-[(4R)-1-methyl-1H,4H,5H,6H-cyclopenta[d]imidazol-4-yl]-1H-1,2,3-triazole-4-carboxamide], the IC50 was found to be 4.4 nM against Human PKK and 756 nM in test [1]. The molecule also came in with a Ki at human TK1 greater than 10000 nM.
Taken in the same sequence, the figures for `Cn1cnc2c1CC[C@H]2NC(=O)c1cnn(Cc2ccc(N3CC4CC4C3)c(C#N)c2)c1` (stereo partly drawn) [Example 190, 1-[(4-{3-Azabicyclo[3.1.0]hexan-3-yl}-3-cyanophenyl)methyl]-N-[(4R)-1-methyl-1H,4H,5H,6H-cyclopenta[d]imidazol-4-yl]-1H-pyrazole-4-carboxamide] were 1.5 nM, 1080 nM and greater than 10000 nM.
Taken in the same sequence, the figures for `Cn1cnc2c1CC[C@H]2NC(=O)c1cnn(Cc2ccc(N3CC4(CC4)C3)nc2C(F)F)c1` [Example 52, 1-[(6-{5-Azaspiro[2.3]hexan-5-yl}-2-(difluoromethyl)-pyridin-3-yl)methyl]-N-[(4R)-1-methyl-1H,4H,5H,6H-cyclopenta[d]imidazol-4-yl]-1H-pyrazole-4-carboxamide] were 1.1 nM, 155 nM and greater than 10000 nM.
Taken in the same sequence, the figures for `Cc1nc(N2CC3C(C2)C3(F)F)ccc1Cn1cc(C(=O)N[C@@H]2CCc3c2ncn3C)c(CO)n1` (stereo partly drawn) [Example 107, 1-[(6-{6,6-Difluoro-3-azabicyclo[3.1.0]hexan-3-yl}-2-methylpyridin-3-yl)methyl]-3-(hydroxymethyl)-N-[(4R)-1-methyl-1H,4H,5H,6H-cyclopenta[d]imidazol-4-yl]-1H-pyrazole-4-carboxamide] were 1 nM, 324 nM and greater than 10000 nM.
Take `Cc1nc(N2CC3C(C2)C3(F)F)ccc1Cn1cc(C(=O)N[C@@H]2CCc3c2ncn3C)cn1` (stereo partly drawn) [Example 90, 1-[(6-{6,6-Difluoro-3-azabicyclo[3.1.0]hexan-3-yl}-2-methylpyridin-3-yl)methyl]-N-[(4R)-1-methyl-1H,4H,5H,6H-cyclopenta[d]imidazol-4-yl]-1H-pyrazole-4-carboxamide]: the IC50 is 0.7 nM against Human PKK and 126 nM in test [1]. This molecule also gave a Ki on human TK1 greater than 10000 nM.
Taken in the same sequence, the figures for `Cc1nc(N2CC3(CC3)C2)ccc1Cn1cnc(C(=O)N[C@@H]2CCc3c2ncn3C)c1` [Example 170, 1-[(6-{5-Azaspiro[2.3]hexan-5-yl}-2-methylpyridin-3-yl)methyl]-N-[(4R)-1-methyl-1H,4H,5H,6H-cyclopenta[d]imidazol-4-yl]-1H-imidazole-4-carboxamide] were 0.8 nM, 469 nM and greater than 10000 nM.
In the case of `Cn1cnc2c1CC[C@H]2NC(=O)c1cnn(Cc2ccc(N3CC4CC4C3)nc2CO)c1` (stereo partly drawn) [Example 86, 1-[(6-{3-Azabicyclo[3.1.0]hexan-3-yl}-2-(hydroxymethyl)-pyridin-3-yl)methyl]-N-[(4R)-1-methyl-1H,4H,5H,6H-cyclopenta[d]imidazol-4-yl]-1H-pyrazole-4-carboxamide], the results for the concentration for half-maximal inhibition (IC50) (on Human PKK; in test [1]) were 1.2 nM and 597 nM, respectively. This molecule displayed a Ki at human TK1 greater than 10000 nM.
In the case of `Cc1cc(N2CC3CC3C2)ncc1Cn1cc(C(=O)N[C@@H]2CCc3c2ncn3C)cn1` (stereo partly drawn) [Example 113, 1-[(6-{3-Azabicyclo[3.1.0]hexan-3-yl}-4-methylpyridin-3-yl)methyl]-N-[(4R)-1-methyl-1H,4H,5H,6H-cyclopenta[d]imidazol-4-yl]-1H-pyrazole-4-carboxamide], on Human PKK, the IC50 turned out to be 9.9 nM. The molecule also displayed an inhibitory constant (Ki) at human TK1 greater than 10000 nM.
For `COCc1nc(N2CC3CC3C2)ccc1Cn1cc(C(=O)N[C@@H]2CCc3c2ncn3C)cn1` (stereo partly drawn) [Example 49, 1-[(6-{3-Azabicyclo[3.1.0]hexan-3-yl}-2-(methoxymethyl)-pyridin-3-yl)methyl]-N-[(4R)-1-methyl-1H,4H,5H,6H-cyclopenta[d]imidazol-4-yl]-1H-pyrazole-4-carboxamide], the IC50 on Human PKK was determined as 2.5 nM; in test [1], 254 nM. The Ki at human TK1 was greater than 10000 nM.
Taken in the same sequence, the figures for `Cn1cnc2c1CC[C@H]2NC(=O)c1cn(Cc2ccc(N3CC4(CC4)C3)nc2C(F)F)nn1` [Example 4, 1-[(6-{5-Azaspiro[2.3]hexan-5-yl}-2-(difluoromethyl)-pyridin-3-yl)methyl]-N-[(4R)-1-methyl-1H,4H,5H,6H-cyclo-penta[d]imidazol-4-yl]-1H-1,2,3-triazole-4-carboxamide] were 0.9 nM, 184 nM and greater than 10000 nM.
In the case of `Cc1nc(N2CC3C(C2)C3(F)F)ncc1Cn1cnc(C(=O)N[C@@H]2CCc3c2ncn3C)c1` (stereo partly drawn) [Example 136, 1-[(2-{6,6-Difluoro-3-azabicyclo[3.1.0]hexan-3-yl}-4-methylpyrimidin-5-yl)methyl]-N-[(4R)-1-methyl-1H,4H,5H,6H-cyclopenta[d]imidazol-4-yl]-1H-imidazole-4-carboxamide], the values for the IC50 (against Human PKK; in test [1]) were 2 nM and 310 nM, respectively. The molecule further showed a Ki on human TK1 greater than 10000 nM.
In turn, `Cc1nc(N2CC3(CC3)C2)ncc1Cn1cc(C(=O)N[C@@H]2CCc3c2ncn3C)cn1` [Example 222, 1-[(2-{5-Azaspiro[2.3]hexan-5-yl}-4-methylpyrimidin-5-yl)methyl]-N-[(4R)-1-methyl-1H,4H,5H,6H-cyclopenta[d]imidazol-4-yl]-1H-pyrazole-4-carboxamide] displayed an IC50 on Human PKK of 11.6 nM. This molecule also gave an inhibition constant Ki on human TK1 of 7280 nM.
As for `CCCc1nc(N2CC3C(C2)C3(F)F)ccc1Cn1cnc(C(=O)N[C@@H]2CCc3c2ncn3C)c1` (stereo partly drawn) [Example 66, 1-[(6-{6,6-Difluoro-3-azabicyclo[3.1.0]hexan-3-yl}-2-propylpyridin-3-yl)methyl]-N-[(4R)-1-methyl-1H,4H,5H,6H-cyclopenta[d]imidazol-4-yl]-1H-imidazole-4-carboxamide], the IC50 on Human PKK is 0.7 nM; in test [1], 839 nM.

What is called IC50 is the concentration that gives 50% inhibition. What is called Ki is the equilibrium dissociation constant of an inhibitor or competing ligand from its target.
